# ± gives the standard deviation of the averaged measurements.
# Experiments:
# [1] = compound: T1, CNC(=O)c1ccc(N2C(=S)N(c3ccc(C#N)c(C(F)(F)F)c3)C(=O)C2(C)C)cc1F [MDV3100]; assay: area under dose-response curve of surviving fraction (unscaled, Aref=0) (surviving fraction x log10(nM)); higher = more resistant; settings: exposure time: 5 days; dose range 0.5-1000 nM
# How it was run: (§1)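 Three screens per tumour cell line were run in 384-well plates at eight inhibitor concentrations from 0.5 to 1000 nM over five days. Surviving fractions, from CellTiter-Glo luminescence normalised to DMSO-only wells, were fitted with 3-parameter logistic curves in the drc R package. The reported area under the curve is the unscaled activity area. It spans log10 dose, and Aref is 0.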
# [2] = compound: T2, C=CC(=O)Nc1cc2c(Nc3ccc(F)c(Cl)c3)ncnc2cc1OCCCN1CCOCC1 [CANERTINIB]; assay: as above; settings: exposure time: 5 days; dose range 0.5-1000 nM
# How it was run: as §1
# [3] = compound: T3, CCCCCCCCCCCCCCCC(=O)Nc1ccn([C@@H]2O[C@H](CO)[C@@H](O)[C@@H]2C#N)c(=O)n1 [SAPACITABINE]; assay: as above; settings: exposure time: 5 days; dose range 0.5-1000 nM
# How it was run: as §1
# [4] = compound: T1, MDV3100; assay: surviving fraction relative to DMSO-only wells; higher = less growth inhibition; settings: exposure time: 5 days
# How it was run: (§2)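 Viability was scored with CellTiter-Glo luminescence and normalised to the median of DMSO-only wells as surviving fraction. Beforehand, log-phase tumour cell lines were seeded at 250–500 cells per well in 384-well plates, allowed 24 hours, and exposed continuously for five days to inhibitors at 0.5, 1, 5, 10, 50, 100, 500 and 1000 nM. Only lines whose three screens gave replicate Pearson r >0.7 and median Z' >0.3 were kept.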
# [5] = compound: T2, CANERTINIB; assay: as above; settings: exposure time: 5 days
# How it was run: as §2
# [6] = compound: T3, SAPACITABINE; assay: as above; settings: exposure time: 5 days
# How it was run: as §2
# [7] = compound: Nc1nc2[nH]cnc2c(=S)[nH]1 [TIOGUANINE]; assay: area under dose-response curve of surviving fraction (unscaled, Aref=0) (surviving fraction x log10(nM)); higher = more resistant; settings: exposure time: 5 days; dose range 0.5-1000 nM
# How it was run: as §1
# [8] = compound: CC[C@@H]1C(=O)N(C)c2cnc(Nc3ccc(C(=O)NC4CCN(C)CC4)cc3OC)nc2N1C1CCCC1 [BI-2536]; assay: as above; settings: exposure time: 5 days; dose range 0.5-1000 nM
# How it was run: as §1
# [9] = compound: CC1(C)CC(=O)c2c(C(F)(F)F)nn(-c3ccc(C(N)=O)c(N[C@H]4CC[C@H](OC(=O)CN)CC4)c3)c2C1 [SNX-5422]; assay: as above; settings: exposure time: 5 days; dose range 0.5-1000 nM
# How it was run: as §1
# [10] = compound: Cn1cc(C2=Nc3cc(NC(=O)C(N)C4CCCCC4)cc4c3C2=CNNC4=O)cn1; assay: as above; settings: exposure time: 5 days; dose range 0.5-1000 nM
# How it was run: as §1
# [11] = compound: CN(C)C/C=C/C(=O)Nc1cc2c(Nc3ccc(F)c(Cl)c3)ncnc2cc1O[C@H]1CCOC1 [AFATINIB]; assay: as above; settings: exposure time: 5 days; dose range 0.5-1000 nM
# How it was run: as §1
test system,measurement,setting,value
CCK81 LARGE INTESTINE,area under dose-response curve,[1],2.49
same,area under dose-response curve,[2],1.68
same,area under dose-response curve,[3],2.16
same,surviving fraction,[4]; 0.5 nM,0.843 ± 0.11
same,surviving fraction,[4]; 1 nM,0.8 ± 0.19
same,surviving fraction,[4]; 5 nM,0.717 ± 0.076
same,surviving fraction,[4]; 10 nM,0.728 ± 0.046
same,surviving fraction,[4]; 50 nM,0.75 ± 0.091
same,surviving fraction,[4]; 100 nM,0.757 ± 0.068
same,surviving fraction,[4]; 500 nM,0.79 ± 0.03
same,surviving fraction,[4]; 1000 nM,0.728 ± 0.06
same,surviving fraction,[5]; 0.5 nM,0.778 ± 0.19
same,surviving fraction,[5]; 1 nM,0.874 ± 0.16
same,surviving fraction,[5]; 5 nM,0.928 ± 0.13
same,surviving fraction,[5]; 10 nM,0.816 ± 0.18
same,surviving fraction,[5]; 50 nM,0.186 ± 0.03
same,surviving fraction,[5]; 100 nM,0.0957 ± 0.019
same,surviving fraction,[5]; 500 nM,0.0373 ± 0.0083
same,surviving fraction,[5]; 1000 nM,0.0263 ± 0.0059
same,surviving fraction,[6]; 0.5 nM,0.972 ± 0.18
same,surviving fraction,[6]; 1 nM,0.94 ± 0.2
same,surviving fraction,[6]; 5 nM,0.813 ± 0.13
same,surviving fraction,[6]; 10 nM,0.7 ± 0.13
same,surviving fraction,[6]; 50 nM,0.427 ± 0.12
same,surviving fraction,[6]; 100 nM,0.482 ± 0.041
same,surviving fraction,[6]; 500 nM,0.456 ± 0.047
same,surviving fraction,[6]; 1000 nM,0.47 ± 0.056
HS57T LUNG,area under dose-response curve,[7],3.23
same,area under dose-response curve,[1],3.03
same,area under dose-response curve,[2],2.92
same,area under dose-response curve,[8],1.08
same,area under dose-response curve,[9],2.06
same,area under dose-response curve,[10],2.49
same,area under dose-response curve,[11],3.15
same,area under dose-response curve,[3],2.37

# — the supplement of paper PMC6045584
